This note sets out measurements from PMC7307922 (Journal of Medicinal Chemistry, 2020).

The nature of series [1]: Kinetic aqueous solubility in PBS pH 7.4. In kind it is physicochemical. The conditions noted are these: for solubility: phosphate buffered saline, pH 7.4, read-out: Aq. solub. On the procedure: (§1) Solubility and log D7.4 measurements were performed in accordance to the previously published procedures.[35]
A short description of another series: log D7.4 measurement. The conditions noted are these: pH 7.4; read-out: logD7.4. In kind it is physicochemical. As to the method: as §1
The nature of series [2]: Stability toward mouse liver microsomes. The settings on record: remaining after 40 min incubation with MLMs. On the procedure:
The study was performed by Bienta (www.bienta.net). Mouse hepatic microsomes were isolated from pooled and perfused livers of male BALB/c mice (n = 50). Isolation was performed according to the standard protocol.[36]
Microsomal incubations were carried out in 96-well plates in 5 aliquots of 40 μL each (one for each time point). Liver microsomal incubation medium comprised PBS (100 mM, pH 7.4), MgCl2 (3.3 mM), NADPH (3 mM), glucose-6-phosphate (5.3 mM), and glucose-6-phosphate dehydrogenase (0.67 units/mL) with 0.42 mg of liver microsomal protein per ml. In the control reactions, the NADPH-cofactor system was substituted with PBS. […] Each reaction was performed in duplicates. Five time points over 40 min were analyzed. The reactions were stopped by adding 12 volumes of 90% acetonitrile–water to incubation aliquots, followed by protein sedimentation by centrifuging at 5500 rpm for 3 min. […]. Supernatants were analyzed using HPLC-MS/MS on an API 3000 PE instrument.
A general note: Liver microsomes are vesicles of endoplasmic reticulum, rich in cytochrome P450 enzymes.

The target in the next series is T1, rFFA3 (Rattus norvegicus, UniProt B2GV46).
T1 construct: expressed in transfected cells; host or cells: HEK293 Flp-In T-REx, doxycycline-induced
T1 sequence (B2GV46 1-319): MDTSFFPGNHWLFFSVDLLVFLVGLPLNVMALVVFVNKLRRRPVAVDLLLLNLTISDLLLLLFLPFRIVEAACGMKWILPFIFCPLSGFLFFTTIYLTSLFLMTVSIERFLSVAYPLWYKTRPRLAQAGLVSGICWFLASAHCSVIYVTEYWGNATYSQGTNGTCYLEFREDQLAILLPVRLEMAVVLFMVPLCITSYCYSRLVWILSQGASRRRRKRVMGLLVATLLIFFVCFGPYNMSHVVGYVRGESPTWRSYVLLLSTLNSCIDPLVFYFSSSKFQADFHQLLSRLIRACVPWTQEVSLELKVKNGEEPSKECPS
Put plainly: cAMP assay, rFFA3. It counts as cell-based. As to the method: With several compounds with improved properties in hand, we wished to investigate the suitability of the compounds as tools for in vivo studies in rodents. Because of the moderate potency and low solubility associated with this series, it has been presumed that they are poorly suited as in vivo tools.
HEK293 Flp-In T-Rex cells stably transfected with FFA3-eYFP receptors were incubated overnight with doxycycline to induce expression, then harvested, and cryopreserved. On the day of each experiment, cells were thawed and resuspended in stimulation buffer. Assays were carried out using a 384-well plate format with 3000 cells/well using the CisBio cAMP GS dynamic kit as per manufacturer’s protocol. Compounds were tested for the ability to inhibit 0.3 μM forskolin-induced cAMP production after co-incubation for 1 h. Reactions were measured using a PHERAstar FS plate reader (BMGLabtech, Aylesbury, UK).
Background: Cyclic AMP is a second messenger, typically raised through Gs and lowered through Gi signalling.

The target in another series is human GPR84 (Homo sapiens, UniProt Q9NQS5). Kind of series: GPR84 counterscreen, cAMP assay. The conditions noted are these: 10 μM. It counts as cell-based. As to the method: Counter screening against FFA1, FFA2 , FF A4 and GPR84 […]
(100 ng/mL) overnight to induce receptor expressi on. […]
Counter screening for GPR84 was carried out using a cAMP assay. Flp -In T-Re x 293 cells generated to stably express human GPR84 tagged at is C-terminal with Gia were first treated with doxycycline […]
HT R-FRET cAMP assay (CisBio) according to the manufacturer’s protocol and measured using an Envision plate reader (PerkinElmer). For these experiments, 5000 cells were used per well in a low volume 384-well plate and compounds were tested against their ability to inhibit the cAMP response to 1 µM forskolin for 45 min. TUG-1985 was used as reference agonist. […]
On the technique in general: A counterscreen serves to expose hits that act by an unwanted route or on another target.

In series [3] the target is T2, Cav1.2 (L-type) Human Calcium Ion Channel (Homo sapiens, UniProt Q13936).
T2 construct: Panlabs
Put plainly: Cav1.2 (L-type) calcium ion channel binding assay, Panlabs. The settings on record: 10 μM. On the procedure:
Counterscreen data on 1, 16, 57 and 63
Cav1.2 (L-type) Human Calcium Ion Channel Binding -20% 13% 12% 1%
(Antagonist Radioligand) Assay, Panlabs, 10 µM

For the next series, the target named is T3, human FFA1 (Homo sapiens, UniProt O14842).
T3 construct: expressed in transfected cells; host or cells: HEK293T, transient co-transfection
Kind of series: FFA1 counterscreen, arrestin BRET assay. In kind it is cell-based. The conditions noted are these: 10 μM. As to the method:
(§2) Counter screening against FFA1, FFA2 , FF A4 and GPR84
(§3) Counter screening against FFA1 and FFA4 was carried out using a modified version of a previously described bioluminescence resonance energy transfer (BRET) designed to assess recruitment of b-ar r estin-2 to each receptor.2 Briefly, HEK293T cells were co-transfected with plasmids en coding either human FFA1 or human FFA4 tagged at their C -termini with eYFP and with a plasmid encoding b-ar r estin-2 tagged at its N-terminal with Nanoluciferase. 24 h post transfection cells were seeded into black with clear bottom 96-well plates that had been coated with poly-D-lysine. Cells were then cultured a further 24 h prior to experiments. Cells were then washed twice with Hank’s Balanced salt solution supplemented with 10 mM HEPES (HBSSH) then incubated at 37 °C in HBSSH for 30 min prior to running the assay. The Nluc substrate, coelenterazine h was then added to a f inal concentration of 5 µM and cells were incubated at 37 °C for 10 min prior to adding test agonists. Following a further 5 min incubation, luminescent emission at 475 nm and 535 nm was measured using a Pherastar FS reader (BMG Labtech, Aylesbury, UK) pla te reader set for bottom plate optics. The BRET ratio was then calculated as 535/475 emissions and all BRET ratio values were normalized against the maxima l BRET ratio obtained using reference agonists for the respective receptors (TUG -891 for FFA4, TUG-770 for FFA1). For antagonism studies, the same protocol was used, however the antagonist was added 15 min prior to the addition of an EC 80 concentration of the reference agonist for each receptor. […]

A further series has as its target T4, human FFA4 (Homo sapiens, UniProt Q5NUL3).
T4 construct: expressed in transfected cells; host or cells: HEK293T, transient co-transfection
T4 sequence (Q5NUL3 1-361): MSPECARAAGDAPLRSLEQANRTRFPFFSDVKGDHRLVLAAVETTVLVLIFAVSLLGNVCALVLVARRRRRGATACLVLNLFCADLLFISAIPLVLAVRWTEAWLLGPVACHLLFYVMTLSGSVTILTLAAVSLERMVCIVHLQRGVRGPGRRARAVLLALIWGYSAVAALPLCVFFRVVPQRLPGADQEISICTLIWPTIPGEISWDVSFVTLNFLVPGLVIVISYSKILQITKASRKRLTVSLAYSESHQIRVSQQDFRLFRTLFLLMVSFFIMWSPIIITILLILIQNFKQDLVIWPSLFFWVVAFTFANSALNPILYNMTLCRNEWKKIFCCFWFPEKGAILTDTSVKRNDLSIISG
Put plainly: FFA4 counterscreen, arrestin BRET assay. In kind it is cell-based. The conditions noted are these: 10 μM. On the procedure:
as §2, §3

The structures appear in SMILES notation. In brackets after ≈: the same amount, converted by molar mass. Several values for one entry are separate records, joined by “and”; a condition that tells them apart may be missing. Identical values can stand only once. Where only a bound is given, the exact number is not on record here.

Sequence of human GPR84 (Q9NQS5 whole entry): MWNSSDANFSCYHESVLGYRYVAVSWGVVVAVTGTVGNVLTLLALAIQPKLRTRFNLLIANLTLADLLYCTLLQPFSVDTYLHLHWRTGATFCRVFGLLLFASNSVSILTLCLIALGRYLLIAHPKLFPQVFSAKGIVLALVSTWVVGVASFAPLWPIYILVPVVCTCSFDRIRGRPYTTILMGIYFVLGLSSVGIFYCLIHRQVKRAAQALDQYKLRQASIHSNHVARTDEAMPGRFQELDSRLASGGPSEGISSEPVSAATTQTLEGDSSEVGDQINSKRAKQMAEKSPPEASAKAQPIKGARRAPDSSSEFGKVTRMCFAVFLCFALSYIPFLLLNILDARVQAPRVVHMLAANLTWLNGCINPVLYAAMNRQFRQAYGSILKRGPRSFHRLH
T3 sequence (O14842 whole entry): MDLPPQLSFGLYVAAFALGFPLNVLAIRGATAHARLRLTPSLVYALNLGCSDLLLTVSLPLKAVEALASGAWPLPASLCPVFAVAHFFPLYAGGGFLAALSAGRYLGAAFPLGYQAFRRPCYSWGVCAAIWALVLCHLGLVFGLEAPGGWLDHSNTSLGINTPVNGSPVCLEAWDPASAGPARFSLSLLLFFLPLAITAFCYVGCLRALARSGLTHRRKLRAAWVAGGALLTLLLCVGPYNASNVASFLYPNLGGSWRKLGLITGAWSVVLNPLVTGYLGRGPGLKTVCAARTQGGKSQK
T2 sequence (Q13936 whole entry): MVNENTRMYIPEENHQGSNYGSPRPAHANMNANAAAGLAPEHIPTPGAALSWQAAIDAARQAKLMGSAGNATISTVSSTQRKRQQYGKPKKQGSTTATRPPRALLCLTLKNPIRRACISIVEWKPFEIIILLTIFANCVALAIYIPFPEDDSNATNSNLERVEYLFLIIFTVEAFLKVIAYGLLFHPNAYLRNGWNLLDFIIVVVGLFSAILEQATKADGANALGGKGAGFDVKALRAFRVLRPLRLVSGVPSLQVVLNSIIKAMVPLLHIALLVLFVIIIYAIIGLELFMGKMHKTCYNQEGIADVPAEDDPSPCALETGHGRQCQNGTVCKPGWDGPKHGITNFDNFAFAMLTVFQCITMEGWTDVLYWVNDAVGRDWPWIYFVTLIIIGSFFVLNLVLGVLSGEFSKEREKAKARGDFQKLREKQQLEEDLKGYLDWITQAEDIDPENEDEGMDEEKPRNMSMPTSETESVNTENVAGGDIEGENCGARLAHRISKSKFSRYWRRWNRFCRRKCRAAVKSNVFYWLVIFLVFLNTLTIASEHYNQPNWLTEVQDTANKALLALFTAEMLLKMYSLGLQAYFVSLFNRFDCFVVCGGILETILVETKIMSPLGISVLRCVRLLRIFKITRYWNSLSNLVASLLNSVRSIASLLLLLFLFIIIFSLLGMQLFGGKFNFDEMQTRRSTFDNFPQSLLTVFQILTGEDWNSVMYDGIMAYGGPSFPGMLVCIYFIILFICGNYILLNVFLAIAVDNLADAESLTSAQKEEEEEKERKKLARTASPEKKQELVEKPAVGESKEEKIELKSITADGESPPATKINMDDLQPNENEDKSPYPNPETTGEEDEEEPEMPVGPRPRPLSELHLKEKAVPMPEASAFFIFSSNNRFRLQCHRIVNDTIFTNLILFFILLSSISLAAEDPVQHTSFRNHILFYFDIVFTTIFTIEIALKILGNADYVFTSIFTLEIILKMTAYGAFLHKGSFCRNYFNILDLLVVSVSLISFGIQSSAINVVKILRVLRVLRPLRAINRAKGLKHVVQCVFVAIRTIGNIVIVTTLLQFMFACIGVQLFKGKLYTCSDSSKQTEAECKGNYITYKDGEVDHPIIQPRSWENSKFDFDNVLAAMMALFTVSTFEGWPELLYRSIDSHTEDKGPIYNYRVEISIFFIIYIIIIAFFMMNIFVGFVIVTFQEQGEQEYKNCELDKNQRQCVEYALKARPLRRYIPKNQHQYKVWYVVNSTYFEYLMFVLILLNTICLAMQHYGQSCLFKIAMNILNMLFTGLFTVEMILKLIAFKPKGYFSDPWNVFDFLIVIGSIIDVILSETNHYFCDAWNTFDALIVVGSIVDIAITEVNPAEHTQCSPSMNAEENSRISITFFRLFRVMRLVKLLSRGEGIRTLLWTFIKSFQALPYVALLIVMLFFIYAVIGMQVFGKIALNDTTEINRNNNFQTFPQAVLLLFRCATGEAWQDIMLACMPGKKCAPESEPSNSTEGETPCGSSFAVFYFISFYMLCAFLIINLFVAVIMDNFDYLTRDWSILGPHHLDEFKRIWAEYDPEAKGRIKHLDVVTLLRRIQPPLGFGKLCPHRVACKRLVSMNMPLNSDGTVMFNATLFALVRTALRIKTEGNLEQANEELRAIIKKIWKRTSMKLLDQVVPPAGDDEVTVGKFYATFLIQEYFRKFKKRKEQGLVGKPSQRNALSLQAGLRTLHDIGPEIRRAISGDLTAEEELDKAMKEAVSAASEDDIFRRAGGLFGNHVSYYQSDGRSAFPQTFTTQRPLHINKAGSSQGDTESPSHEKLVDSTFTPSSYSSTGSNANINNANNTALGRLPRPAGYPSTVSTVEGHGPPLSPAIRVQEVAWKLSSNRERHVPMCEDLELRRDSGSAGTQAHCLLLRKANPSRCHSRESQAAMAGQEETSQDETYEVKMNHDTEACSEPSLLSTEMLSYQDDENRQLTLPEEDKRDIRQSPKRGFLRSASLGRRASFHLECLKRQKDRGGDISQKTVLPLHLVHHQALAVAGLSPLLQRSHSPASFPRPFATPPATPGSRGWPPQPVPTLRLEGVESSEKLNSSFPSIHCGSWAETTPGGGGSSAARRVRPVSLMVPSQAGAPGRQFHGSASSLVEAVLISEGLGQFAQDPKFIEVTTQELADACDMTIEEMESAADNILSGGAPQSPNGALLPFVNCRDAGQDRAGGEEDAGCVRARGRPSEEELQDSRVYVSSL
T2 sequence (Q08289 whole entry partner): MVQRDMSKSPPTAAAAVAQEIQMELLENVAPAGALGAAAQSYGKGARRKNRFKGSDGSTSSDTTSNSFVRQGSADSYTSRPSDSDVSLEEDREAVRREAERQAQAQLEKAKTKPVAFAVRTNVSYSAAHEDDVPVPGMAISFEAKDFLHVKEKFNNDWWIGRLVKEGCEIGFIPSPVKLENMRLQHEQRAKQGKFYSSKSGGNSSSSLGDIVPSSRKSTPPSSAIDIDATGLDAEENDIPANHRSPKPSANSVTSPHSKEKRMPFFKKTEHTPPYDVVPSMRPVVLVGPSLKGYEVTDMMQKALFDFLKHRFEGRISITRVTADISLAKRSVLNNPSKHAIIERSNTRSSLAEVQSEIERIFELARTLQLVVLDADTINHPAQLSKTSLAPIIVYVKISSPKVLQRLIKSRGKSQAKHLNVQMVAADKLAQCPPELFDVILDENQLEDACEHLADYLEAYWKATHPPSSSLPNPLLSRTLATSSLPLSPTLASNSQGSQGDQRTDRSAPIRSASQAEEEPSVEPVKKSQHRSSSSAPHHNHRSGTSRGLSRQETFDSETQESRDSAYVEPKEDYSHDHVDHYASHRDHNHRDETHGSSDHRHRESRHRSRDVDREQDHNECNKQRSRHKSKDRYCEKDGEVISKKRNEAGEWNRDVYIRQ
T2 sequence (P54289 25-946 partner limits assumed): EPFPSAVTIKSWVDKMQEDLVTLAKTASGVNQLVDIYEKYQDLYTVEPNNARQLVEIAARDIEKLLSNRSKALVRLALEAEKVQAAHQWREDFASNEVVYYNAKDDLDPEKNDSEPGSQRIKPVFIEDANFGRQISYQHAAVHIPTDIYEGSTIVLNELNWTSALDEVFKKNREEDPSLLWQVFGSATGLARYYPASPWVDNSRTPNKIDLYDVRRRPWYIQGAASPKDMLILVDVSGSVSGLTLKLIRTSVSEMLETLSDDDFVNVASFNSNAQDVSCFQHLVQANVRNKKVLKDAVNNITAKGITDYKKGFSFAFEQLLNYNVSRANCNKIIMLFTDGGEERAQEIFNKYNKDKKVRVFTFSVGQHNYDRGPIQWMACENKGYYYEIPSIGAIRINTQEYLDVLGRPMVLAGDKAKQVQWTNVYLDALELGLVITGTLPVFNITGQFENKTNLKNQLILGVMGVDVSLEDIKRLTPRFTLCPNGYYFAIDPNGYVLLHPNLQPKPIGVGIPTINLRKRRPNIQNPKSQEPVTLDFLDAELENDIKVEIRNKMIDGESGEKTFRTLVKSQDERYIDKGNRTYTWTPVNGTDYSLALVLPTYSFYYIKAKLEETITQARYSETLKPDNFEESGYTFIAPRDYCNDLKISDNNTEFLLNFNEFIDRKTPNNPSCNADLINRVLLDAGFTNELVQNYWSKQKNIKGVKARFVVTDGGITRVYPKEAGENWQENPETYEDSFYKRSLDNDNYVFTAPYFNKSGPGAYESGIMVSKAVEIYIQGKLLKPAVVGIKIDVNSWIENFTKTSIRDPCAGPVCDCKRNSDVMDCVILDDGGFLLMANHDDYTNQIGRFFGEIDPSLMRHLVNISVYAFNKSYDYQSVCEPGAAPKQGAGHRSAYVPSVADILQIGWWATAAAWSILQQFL
T2 sequence (P54289 947-1103 partner limits assumed): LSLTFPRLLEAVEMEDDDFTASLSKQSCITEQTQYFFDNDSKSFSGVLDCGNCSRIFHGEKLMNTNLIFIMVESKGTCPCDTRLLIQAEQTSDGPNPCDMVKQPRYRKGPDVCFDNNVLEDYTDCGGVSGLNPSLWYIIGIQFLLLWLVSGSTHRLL

Regarding `CC1=C(C(=O)Nc2ccccc2C)C(c2ccco2)C2=C(CCCC2=O)N1` (stereo not shown) [Compound 1, 4-(Furan-2-yl)-2-methyl-5-oxo-N-(o-tolyl)-1,4,5,6,7,8-hexahydroquinoline-3-carboxamide, reference compound], the solubility in series [1] was determined as 190 µM (≈ 68.9 µg/mL). The logD in the series “log D7.4 measurement” amounted to 2.05. Also, the “MLM (%) remaining” value in series [2] is given as 52%. Moreover, the “cAMP pEC50 (rFFA3)” value at rFFA3 is given as 5.87 ± 0.07. Further, on human GPR84, the “GPR84, agonist, cAMP assay” value amounted to 1±7% and the “activity at GPR84” value was “No significant activity”. Moreover, in series [3], the “Cav1.2 (L-type) binding (antagonist radioligand)” value (“Cav1.2 (L-type) binding” for short) is given as -20% and the “activity at L-type calcium ion channels” value is given as “No significant activity”. For the same molecule, the “activity at FFA1” value at human FFA1 was “No significant activity”. Also, the “activity at FFA4” value on human FFA4 is listed as “No significant activity”.
`CC1=C(C(=O)Nc2cc(Cl)ccc2Cl)C(C2CCCC2)C2=C(CCCC2=O)N1` (stereo not shown) [Compound 63, 4-Cyclopentyl-N-(2,5-dichlorophenyl)-2-methyl-5-oxo-1,4,5,6,7,8-hexahydroquinoline-3-carboxamide]: the solubility in series [1] was determined as 9 µM (≈ 3.77 µg/mL). For the same molecule, the logD in the series “log D7.4 measurement” is more than 4.3. Further, the “MLM (%) remaining” value in series [2] is on record as 41%. Besides, on rFFA3, the “cAMP pEC50 (rFFA3)” value worked out at 6.39 ± 0.03. Further, at human GPR84, the “GPR84, agonist, cAMP assay” value is 0±1% and the “activity at GPR84” value is recorded as “No significant activity”. In series [3], the “Cav1.2 (L-type) binding” value came to 1% and the “activity at L-type calcium ion channels” value is “No significant activity”. Moreover, the “activity at FFA1” value at human FFA1 is reported as “No significant activity”. In addition, the “activity at FFA4” value on human FFA4 is on record as “No significant activity”.
On to `CCCC1C(C(=O)Nc2cc(Cl)ccc2Cl)=C(C)NC2=C1C(=O)CCC2` (stereo not shown) [Compound 57, N-(2,5-Dichlorophenyl)-2-methyl-5-oxo-4-propyl-1,4,5,6,7,8-hexahydroquinoline-3-carboxamide], for which the “increase of solubility relative to 16” value in series [1] (kinetic solubility) is 6 fold. Further, the solubility in series [1] turned out to be 33 µM (≈ 13 µg/mL). In addition, the logD at 24 h in “log D7.4 measurement” was 4.25. The “MLM (%) remaining” value in series [2] was 1−2% and 1%. On human GPR84, the “GPR84, agonist, cAMP assay” value is 1±4% and the “activity at GPR84” value is “No significant activity”. In series [3], the “Cav1.2 (L-type) binding” value is listed as 12% and the “activity at L-type calcium ion channels” value is “No significant activity”. For the same molecule, the “activity at FFA1” value on human FFA1 is “No significant activity”. Moreover, on human FFA4, the “activity at FFA4” value was “No significant activity”.
As for `CC1=C(C(=O)Nc2cc(Cl)ccc2Cl)C(c2ccco2)C2=C(CCCC2=O)N1` (stereo not shown) [Compound 16, reference compound], the solubility in series [1] is 5 µM (≈ 2.09 µg/mL). Further, the logD in “log D7.4 measurement” was 3.19. In addition, the “MLM (%) remaining” value in series [2] is 1−2% and 1%. Besides, the “cAMP pEC50 (rFFA3)” value at rFFA3 was found to be 6.34 ± 0.04. Further, at human GPR84, the “GPR84, agonist, cAMP assay” value is on record as 2±4% and the “activity at GPR84” value is “No significant activity”. In series [3], the “Cav1.2 (L-type) binding” value is recorded as 13% and the “activity at L-type calcium ion channels” value is reported as “No significant activity”. Besides, the “activity at FFA1” value at human FFA1 is “No significant activity”. The “activity at FFA4” value at human FFA4 is given as “No significant activity”.
